Entries after “also recorded” stand apart in the source; their conditions may differ.
Assays:
Type in all cases: physicochemical
[1] = Stability assessment (HPLC) under accelerated and harsh storage conditions; details: for Stability assessment, HPLC content: in % (unit assumed)
Description: About 10-30 mg of the sample was stored for 4 weeks in an open state under the accelerated condition (40° C., 75% RH) or in a sealed state under the harsh condition in an oven at 80° C. [table]

[2] = Dynamic vapor sorption (DVS) analysis
Description: DVS was measured using automated gravimetric vapor sorption analyzer equipped with Cahn D200 ultra-microbalance (DVS Intrinsic apparatus, Surface Measurement System Ltd., UK). First, a sample of 10-20 mg was put in a sample pan and hung on a hang-down wire, and measurement was started when the weight and humidity reached equilibrium. In one cycle, relative humidity was increased from 0% to 90% and then dropped back to 0%. Two cycles were carried out. The experiment was carried out in a way that the relative humidity was increased at 10% increment using a dm/dt method. The experiment was carried out at room temperature (25° C.)

[3] = Thermogravimetric analysis (TGA); details: heated 30° C. to 350° C. at 10° C./min
Description: The TGA was measured using Mettler Toledo TGA/DSC 1 module. About 4-8 mg of the sample is weighed and put into a 100 μL Al crucible (flat-bottomed aluminum crucibles). Then, TGA measurement is performed while the sample is heated from 30° C. to 350° C. at a rate of 10° C./min. During the measurement, nitrogen gas is supplied to the inside of the instrument at a rate of 80 mL/min to prevent the inflow of oxygen and other gases. Data collection and evaluation were performed using the software STARe.

Question: For `CC(C)C(=O)N([C@H]1C[C@@H](C(=O)N2CCOCC2)N(C(=O)[C@@H]2CN(C(C)(C)C)C[C@H]2c2ccc(Cl)cc2)C1)[C@H]1CC[C@@H](C)CC1` [Example 1, N-((3S,5S)-1-((3S,4R)-1-(tert-butyl)-4-(4-chlorophenyl)pyrrolidine-3-carbonyl)-5-(morpholine-4-carbonyl)pyrrolidin-3-yl)-N-((1s,4R)-4-methylcyclohexyl)isobutyramide], which “Stability assessment, HPLC content” value ([1]; Accelerated condition (40° C./75% RH), open state, Day 3) is on record?
Answer: 96.35

Question: And the “Stability assessment, HPLC content” value ([1]; Accelerated condition (40° C./75% RH), open state, Week 1)?
Answer: 96.02

Question: What about the “Stability assessment, HPLC content” value ([1]; Accelerated condition (40° C./75% RH), open state, Week 2) of the same molecule?
Answer: 96.08

Question: What about the “Stability assessment, HPLC content” value ([1]; Accelerated condition (40° C./75% RH), open state, Week 4) of the same molecule?
Answer: 95.69

Question: What about the “Stability assessment, HPLC content” value ([1]; Harsh condition (80° C.), sealed state, Day 3) of the same molecule?
Answer: 96.54

Question: What about the “Stability assessment, HPLC content” value ([1]; Harsh condition (80° C.), sealed state, Week 1) of the same molecule?
Answer: 95.74

Question: What about the “Stability assessment, HPLC content” value ([1]; Harsh condition (80° C.), sealed state, Week 2) of the same molecule?
Answer: 94.82

Question: And the “Stability assessment, HPLC content” value ([1]; Harsh condition (80° C.), sealed state, Week 4)?
Answer: 93.42

Question: And the “Stability assessment, HPLC content” value ([1]; Initial)?
Answer: 96.01

Question: And the “chemical stability (HPLC), result in words” value ([1]; accelerated condition (40° C., 75% RH), 4 weeks, listed as crystalline form II)?
Answer: showed chemical stability for 4 weeks; also recorded: exhibited chemical stability for 4 weeks

Question: What about the “decrease in the content” value ([1]; harsh condition (closed state, 80° C.), 4 weeks) of the same molecule?
Answer: about 2.6%

Question: What about the “physical change after DVS (XRPD pattern vs initial)” value ([2]; XRPD after DVS analysis) of the same molecule?
Answer: no physical change occurred

Question: And the “total weight gain (DVS)” value ([2]; between 0-90% RH, 25° C.)?
Answer: 1.25 % w/w

Question: What about the “weight loss before degradation (TGA)” value [3] of the same molecule?
Answer: no weight loss was observed

Question: And the “temperature up to which thermally stable (TGA)” value ([3]; error ±5° C.)?
Answer: up to 270 °C
